Paper PMC7015555, “Transthyretin-Binding Activity of Complex Mixtures Representing the Composition of Thyroid-Hormone Disrupting Contaminants in House Dust and Human Serum” (Environmental Health Perspectives, 2020)
Like-named read-outs stand apart in the source and are kept apart here.

What was measured:
[1] = tested on: TTR; details: cited from earlier work; for IC50: read-out: IC50 (M), Radioactive Ligand Binding Assay data from the literature; for REP, Radioactive Ligand Binding Assay data from the literature: relative effect potency; for T4-TTR binding inhibition in the RLBA: at 10 µM (highest concentration)
[2] = molecular target: TTR (Homo sapiens, UniProt P02766); assay: FITC-T4 TTR competitive binding assay; details: for REP (relative potency compared to T4): IC20 of T4 / IC20 of compound (Equation 14); for IC50: read-out: IC50; for T4EQ concentration (nmol/g dust): reported concentration of the compound in SRM2585 dust x REP; for maximum competitive potency at high test concentrations: Figure 1C; for inhibition of FITC-T4-TTR-binding: present study (Figure 1C)
[3] = 20% inhibition of FITC-T4 binding to TTR, 30 nM TTR, 110 nM FITC-T4, 2 h at 4°C, pH 8.0
[4] = individual compounds, 30 nM TTR, 110 nM FITC-T4, 2 h at 4°C, pH 8.0, — = 50% inhibition level not reached (footnote g)
[5] = inhibitor-TTR dissociation constant converted from IC20 (Equation 4), 4°C, read-out: Ki

SMILES	IC50 ([1]; ref Weiss et al. 2015) [M]	REP, Radioactive Ligand Binding Assay data from the literature ([1]; ref Weiss et al. 2015)	Ki [2] [nM]	REP (relative potency compared to T4) [2]	IC20 ([2]; pH 8) [nM]	IC50 [2] [nM]	T4EQ concentration (nmol/g dust) [2] [nmol/g dust]	IC20 [2, 3] [nM]	IC50 [2, 4] [nM]	Ki [2, 5] [nM]	REP, Radioactive Ligand Binding Assay data from the literature ([1]; ref Marchesini et al. 2008)	T4-TTR binding inhibition in the RLBA ([1]; ref Hamers et al. 2006)	maximum competitive potency at high test concentrations [2]	inhibition of FITC-T4-TTR-binding [2] [%]	T4-TTR binding inhibition in the RLBA ([1]; ref Hamers et al. 2011)	REP, Radioactive Ligand Binding Assay data from the literature ([1]; ref Hamers et al. (2011))	pIC50 in the RLBA ([1]; –log(IC50), ref Excel Table S1)	Ki ([2]; read-out: Ki) [nM]
Oc1c(Br)cc(Br)cc1Br [2,4,6-TBP, 2,4,6-tribromophenol]	4.8e-09	10	5.5	2.4	8.9	29	–	–	–	–	–	–	–	–	–	–	–	–
CCCCCCCCCc1ccc(O)cc1 [4-Nonylphenol, 4-nonylphenol]	1e-05	0.008	3900	0.012	1800	16000	0.946	–	–	–	–	–	–	–	–	–	–	–
Oc1c(Cl)cc(-c2ccc(Cl)c(Cl)c2)c(Cl)c1Cl [4-OH-CB-107, 4-OH-2,3,3ʹ,4ʹ,5-pentachlorobiphenyl]	2.26e-08	3.5	–	0.63	–	–	–	34	68	59	–	–	–	–	–	–	–	–
Oc1c(Cl)c(Cl)c(-c2cc(Cl)c(Cl)cc2Cl)c(Cl)c1Cl [4-OH-CB-187, 4-OH-2,2ʹ,3,4ʹ,5,5ʹ,6-heptachlorobiphenyl]	1.98e-08	4	–	2.6	–	–	–	8.2	17	4	–	–	–	–	–	–	–	–
Oc1cc(Oc2ccc(Br)cc2Br)c(Br)cc1Br [5-OH-BDE-47, 5-OH-2,2ʹ,4,4ʹ-tetrabromodiphenyl ether]	2.5e-08	3	–	1.5	–	–	–	14	27	16	–	–	–	–	–	–	–	–
Oc1cc(Br)cc(Br)c1Oc1ccc(Br)cc1Br [6-OH-BDE-47, 6-OH-2,2ʹ,4,4ʹ-tetrabromodiphenyl ether]	1.5e-07	0.39	–	0.68	–	–	–	31	98	54	–	–	–	–	–	–	–	–
Oc1cc(Br)cc(Br)c1Oc1cc(Br)c(Br)cc1Br [6ʹ-OH-BDE-99, 6ʹ-OH-2,2ʹ,4,4ʹ,5-pentabromodiphenyl ether]	–	–	–	2.5	–	–	–	8.4	20	4.5	0.2	–	–	–	–	–	–	–
Brc1ccc(Oc2ccc(Br)cc2Br)c(Br)c1 [BDE-47, 2,2ʹ,4,4ʹ-tetrabromodiphenyl ether]	3.6e-05	0.0025	440	0.10	210	1300	0.103	–	–	–	–	–	–	–	–	–	–	–
Brc1ccc(Oc2cc(Br)c(Br)cc2Br)c(Br)c1 [BDE-99, 2,2ʹ,4,4ʹ,5-pentabromodiphenyl ether]	–	–	150	0.29	73	–	0.458	–	–	–	–	<20% inhibition at 10 µM (Hamers et al. 2006)	leveled off before reaching complete inhibition	> 20	–	–	–	–
Clc1ccc(-c2cc(Cl)c(Cl)cc2Cl)cc1Cl [CB-118, 2,3ʹ,4,4ʹ,5-pentachlorobiphenyl]	–	–	–	0.14	160	560	0.011	–	–	320	–	–	–	> 20	<20% inhibition at 10 µM (Hamers et al. 2011)	–	–	–
Clc1cc(Cl)c(-c2cc(Cl)c(Cl)cc2Cl)cc1Cl [CB-153, 2,2ʹ,4,4ʹ,5,5ʹ-hexachlorobiphenyl]	> 1.5e-05	<0.0037	150	0.27	77	180	0.030	–	–	–	–	–	leveled off before reaching complete inhibition	–	–	<0.0037	< 4.8	–
NS(=O)(=O)C(F)(F)C(F)(F)C(F)(F)C(F)(F)C(F)(F)C(F)(F)C(F)(F)C(F)(F)F [FOSA, perfluorooctane sulfonamide]	6.12e-06	0.01	–	0.11	190	730	0.002	–	–	400	–	–	–	–	–	–	–	–
O=S(=O)(O)C(F)(F)C(F)(F)C(F)(F)C(F)(F)F [PFBS, perfluorobutane sulfonic acid]	1.95e-05	0.003	–	0.0091	–	–	0.002	2300	9700	5100	–	–	–	–	–	–	–	–
O=C(O)C(F)(F)C(F)(F)C(F)(F)C(F)(F)C(F)(F)C(F)(F)C(F)(F)C(F)(F)C(F)(F)F [PFDA, perfluorodecanoic acid]	8.95e-06	0.007	–	0.012	–	–	0.001	1700	5400	–	–	–	–	–	–	–	–	3700
O=C(O)C(F)(F)C(F)(F)C(F)(F)C(F)(F)C(F)(F)C(F)(F)F [PFHpA, perfluoroheptanoic acid]	1.57e-06	0.039	640	0.071	300	1200	0.048	–	–	–	–	–	–	–	–	–	–	–
O=C(O)C(F)(F)C(F)(F)C(F)(F)C(F)(F)C(F)(F)F [PFHxA, perfluorohexanoic acid]	8.22e-06	–	–	0.014	–	–	0.011	1600	5600	–	–	–	–	–	–	–	–	3400
O=S(=O)(O)C(F)(F)C(F)(F)C(F)(F)C(F)(F)C(F)(F)C(F)(F)F [PFHxS, perfluorohexane sulfonic acid]	7.17e-07	0.085	280	0.16	140	460	0.561	–	–	–	–	–	–	–	–	–	–	–
O=C(O)C(F)(F)C(F)(F)C(F)(F)C(F)(F)C(F)(F)C(F)(F)C(F)(F)C(F)(F)F [PFNA, perfluorononanoic acid]	2.74e-06	0.022	–	0.059	–	–	0.013	360	1100	–	–	–	–	–	–	–	–	770
O=C(O)C(F)(F)C(F)(F)C(F)(F)C(F)(F)C(F)(F)C(F)(F)C(F)(F)F [PFOA, perfluorooctanoic acid]	9.49e-07	0.064	1100	0.043	490	1100	0.060	–	–	–	–	–	–	–	–	–	–	–
